From US5681708A, “Method for screening compositions” (SmithKline Beecham Corporation, priority 1994, dated 1997)

Molecular target: T1, CD4/Lck protein complex (Homo sapiens, UniProt P01730+P06239)
T1 construct: Detergent extracts of CEM cells were prepared by pelleting cells; endogenous in cells; host or cells: CEM (ATCC CCL 119), acute lymphoblastic CD4-positive human T-cell line; diluted detergent (NP-40) extract
Assay: CD4/Lck Dissociation Assay (ELISA-based, CEM cell extracts)
Format: biochemical
Details: CEM cell detergent extract, 30 min at 30° C., OKT4 capture, C-Lck detection; read-out: IC50, concentration of test compound which dissociated 50% of the target CD4/Lck protein complex relative to controls
Experimental: Acute lymphoblastic CD4-positive human T-cells, from the T-cell line CEM (ATCC CCL 119), were grown in suspension in RPMI-1640 medium supplemented with 10% heat-inactivated fetal calf serum at 37° C. to a cell density of 0.8-1.2×10^6 cells/mi. Detergent extracts of CEM cells were prepared by pelleting cells, washing with Dulbecco's phosphate buffered saline without Ca and Mg (D-PBS) at 4° C. and resuspending the cell pellet in sufficient freshly prepared extraction buffer (50 mM Tris, pH 8.0, 150 mM NaCl, 2 mM EDTA, 50 mM NaF, 3% NONIDET™ P-40, 0.1 mMNa vanadate, 0.1 mM PMSF, 10 ug/ml leupeptin, 10 ug/ml aprotinin, 10 ug/ml TLCK) to yield 1.0×10^8 cells in a volume of 1 ml. The cell pellet was resuspended gently on ice until a homogeneous suspension was obtained and kept on ice for at least 30 min with occasional vortexing. The suspension was then centrifuged at 29,000 xg for 30 min at 4° C.; the clear cell extract supernatant was transferred to a clean tube and placed on ice.
Cell extracts were diluted 16-fold with ice-cold PBS (0.1M phosphate, 0.15M NaCl, ph 7.4) containing 0.5% (w/v) BSA and 0.05% (v/v) TWEEN™ 20 (PBT) to yield 6.25×10^6 cell equivalents/mi. Candidate dissociative agents were diluted to 1 mg/ml with ddH2 O and 10 ul were added to Corning plate wells. A 90 ul volume of diluted cell extract (5.6×10^5 cell equivalents) were added to the Corning plate wells containing an organic solvent to provide a final candidate agent concentration of 0.1 mg/ml. Exemplary organic solvents are DMSO and ethanol. The resulting final concentration of organic solvent was 1%. The plates were incubated for 30 min at 30° C. in a water bath and then transferred to ice. Alternatively, diluted cell extracts can be incubated with candidate agents for 2 to 3 hours at room temperature (22°-25° C.).
ELISA assay plate wells were prepared by coating MaxiSorp™ (Nunc, round-bottom wells) or TITERTEK™ plate wells overnight at 4° C. with 100 ul of 2.5 ug/ml OKT4 CD4 mAb in 0.1M NaHCO3, pH 9.2. TITERTEK™ and Corning ELISA plates were also successfully used. Other CD4 monoclonal antibodies which bind to portions of the V1 domain in the extracellular portion of the CD4 molecule may also be used. All CD4 monoclonal antibodies were either purchased from Ortho or purified from specific hybridomas available from the ATCC. OKT4 hybridoma is available under ATCC CRL 8002.
When ready for use, the coating solution was removed and the wells rinsed 3× with PBS. A blocking step was performed by adding 0.3 ml PBT per well and incubating at least 30 min at 37° C. All PBT was removed and 50 ul of diluted cell extracts were added to the test wells. 50 ul of extraction buffer/PBT (1:15, v/v) were added to the assay blank wells. The plates were sealed and incubated 1 hour at 4° C. […]

T1 sequence (P06239 2-509 limits assumed, other chains not shown): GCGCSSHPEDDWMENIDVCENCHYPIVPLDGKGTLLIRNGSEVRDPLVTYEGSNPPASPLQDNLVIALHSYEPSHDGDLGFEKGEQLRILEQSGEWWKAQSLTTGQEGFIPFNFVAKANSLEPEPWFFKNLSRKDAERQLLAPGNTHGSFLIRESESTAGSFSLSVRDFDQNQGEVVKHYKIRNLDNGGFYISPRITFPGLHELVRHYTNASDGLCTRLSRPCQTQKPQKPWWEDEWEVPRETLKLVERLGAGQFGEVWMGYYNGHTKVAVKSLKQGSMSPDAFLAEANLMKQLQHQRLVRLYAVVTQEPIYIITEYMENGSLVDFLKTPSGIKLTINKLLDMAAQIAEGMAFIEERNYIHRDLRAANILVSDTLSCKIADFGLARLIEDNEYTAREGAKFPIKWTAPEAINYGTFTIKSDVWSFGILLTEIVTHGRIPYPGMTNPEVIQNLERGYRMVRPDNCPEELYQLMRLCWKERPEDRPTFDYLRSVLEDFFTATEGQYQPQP

Molecule	IC50
5,7-dihydroxy-4'-methoxyisoflavone [Genistein]	> 200 µM
CCCCCCCCCCCC1N=C(N)N2CCCC2=C1C(=O)OCCCCNC(=N)N (stereo not shown) [Crambine A]	< 100 µM
N#CC(C#N)=Cc1ccc(O)c(O)c1 [LC-A23, 2-cyano, 3-(3,4-dihydroxyphenyl)acrylonitrile]	> 500 µM
N#C/C(=C\c1ccc(O)c(O)c1)C(N)=O [LC-A46, trans-2-cyano, 3-(3,4-dihydroxyphenyl)acrylamide]	300 µM
